Patent US6166063A, “N-(substituted glycyl)-2-cyanopyrrolidines, pharmaceutical compositions containing them and their use in inhibiting dipeptidyl peptidase-IV” (Novartis AG, priority 1999, dated 2000)
pIC50: −log10 of the molar value.

Legend:
[1] = test system: insulin resistant rats; test: Early insulin response to an oral glucose challenge in insulin resistant rats; type: in vivo, Male Sprague-Dawley rats; details: 10 μmol/kg oral in CMC, 30 min before oral glucose 1 g/kg; high fat diet rats; % increase of the mean of the control animals
Procedure: Male Sprague-Dawley rats that had been fed a high fat diet (saturated fat=57% calories) for 2-3 weeks were fasted for approximately 2 hours on the day of testing, divided into groups of 8-10, and dosed orally with 10 μmol/kg of the test compounds in CMC. An oral glucose bolus of 1 g/kg was administered 30 minutes after the test compound directly into the stomach of the test animals. Blood samples, obtained at various timepoints from chronic jugular vein catheters, were analyzed for plasma glucose and immunoreactive insulin (IRI) concentrations, and plasma DPP-IV activity. Plasma insulin levels were assayed by a double antibody radioimmunoassay (RIA) method using a specific anti-rat insulin antibody from Linco Research (St. Louis, Mo.). The RIA has a lower limit of detection of 0.5 μU/mL with intra- and inter-assay variations of less than 5%. Data are expressed as % increase of the mean of the control animals. Upon oral administration, each of the compounds tested amplified the early insulin response which led to an improvement in glucose tolerance in the insulin resistant test animals.

[2] = biological target: human plasma DPP-IV (Homo sapiens, UniProt P27487); test: DPP-IV inhibition in human plasma; type: biochemical; details: substrate H-Glycine-Proline-AMC, pH 7.8, room temperature, 8-point curve
Procedure: (§1) Briefly, 5 μl of plasma are added to 96-well flat-bottom microtiter plates (Falcon), followed by the addition of 5 μl of 80 mM MgCl2 in incubation buffer (25 mMHEPES, 140 mM NaCl, 1% RIA-grade BSA, pH 7.8). After a 60 min. incubation at room temperature, the reaction is initiated by the addition of 10 μl of incubation buffer containing 0.1 mM substrate (H-Glycine-Proline-AMC;AMC is 7-amino-4-methylcoumarin). The plates are covered with aluminum foil (or kept in the dark) and incubated at room temperature for 20 min. […] A fluorescence-concentration curve of free AMC is generated using 0-50 μM solutions of AMC in assay buffer. The curve generated is linear and is used for interpolation of substrate consumption (catalytic activity in nmoles substrate cleaved/min). As with the previous assay, the potency of the test compounds as DPP-IV inhibitors, expressed as IC50, is calculated from 8-point, dose-response curves using a 4 parameter logistic function.

[3] = biological target: rat plasma DPP-IV (Rattus norvegicus, UniProt P14740); test: DPP-IV inhibition in rat plasma
rat plasma DPP-IV, sequence (P14740 37-767 limits assumed): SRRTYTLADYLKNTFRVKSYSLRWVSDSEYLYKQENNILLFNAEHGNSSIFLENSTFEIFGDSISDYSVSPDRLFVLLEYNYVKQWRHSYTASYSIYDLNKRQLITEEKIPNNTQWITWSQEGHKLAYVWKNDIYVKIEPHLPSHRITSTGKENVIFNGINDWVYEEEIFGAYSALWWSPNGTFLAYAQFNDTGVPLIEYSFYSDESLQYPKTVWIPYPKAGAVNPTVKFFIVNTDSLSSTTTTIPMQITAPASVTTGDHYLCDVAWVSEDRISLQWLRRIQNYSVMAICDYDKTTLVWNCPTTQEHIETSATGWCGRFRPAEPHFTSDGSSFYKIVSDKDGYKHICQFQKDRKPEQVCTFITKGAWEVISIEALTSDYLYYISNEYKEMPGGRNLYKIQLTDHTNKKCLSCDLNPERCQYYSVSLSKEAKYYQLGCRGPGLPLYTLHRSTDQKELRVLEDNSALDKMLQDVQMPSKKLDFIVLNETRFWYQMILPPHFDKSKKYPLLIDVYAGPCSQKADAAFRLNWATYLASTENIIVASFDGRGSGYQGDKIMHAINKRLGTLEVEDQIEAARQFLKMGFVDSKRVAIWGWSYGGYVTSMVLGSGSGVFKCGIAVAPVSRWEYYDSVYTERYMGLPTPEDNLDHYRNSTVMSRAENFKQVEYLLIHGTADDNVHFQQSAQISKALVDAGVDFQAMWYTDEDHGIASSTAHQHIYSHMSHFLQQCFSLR
Procedure: as §1

human plasma DPP-IV, sequence (P27487 39-766 limits assumed): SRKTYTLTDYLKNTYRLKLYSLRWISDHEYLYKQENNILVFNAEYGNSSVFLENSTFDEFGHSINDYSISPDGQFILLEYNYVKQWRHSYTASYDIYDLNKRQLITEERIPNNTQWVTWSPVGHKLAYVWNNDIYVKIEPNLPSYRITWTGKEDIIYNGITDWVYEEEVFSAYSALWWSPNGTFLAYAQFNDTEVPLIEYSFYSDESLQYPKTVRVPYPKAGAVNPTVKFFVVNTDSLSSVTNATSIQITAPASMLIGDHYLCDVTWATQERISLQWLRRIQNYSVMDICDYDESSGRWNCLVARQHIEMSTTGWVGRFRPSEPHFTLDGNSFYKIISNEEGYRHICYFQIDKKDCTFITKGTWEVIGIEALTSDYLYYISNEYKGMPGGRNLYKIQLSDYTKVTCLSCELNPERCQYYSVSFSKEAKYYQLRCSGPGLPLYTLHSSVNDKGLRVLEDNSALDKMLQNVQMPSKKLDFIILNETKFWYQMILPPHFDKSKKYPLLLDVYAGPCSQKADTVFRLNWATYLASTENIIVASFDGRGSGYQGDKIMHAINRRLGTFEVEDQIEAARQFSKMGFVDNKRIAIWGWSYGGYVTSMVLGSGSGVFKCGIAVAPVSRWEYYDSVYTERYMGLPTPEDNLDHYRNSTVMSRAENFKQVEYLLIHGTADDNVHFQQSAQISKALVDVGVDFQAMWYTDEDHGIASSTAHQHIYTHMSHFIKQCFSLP

| SMILES | Increase of Insulin Response [1] [%] | pIC50 [2] | pIC50 [3] |
| --- | --- | --- | --- |
| N#C[C@@H]1CCCN1C(=O)CNC12CC3CC(CC(O)(C3)C1)C2 [Ex. 1, Pyrrolidine, 1-[(3-hydroxy-1-adamantyl)amino]acetyl-2-cyano-, (S)] | 64 |  |  |
| N#C[C@@H]1CCCN1C(=O)CNC1C2CC3CC1CC(O)(C3)C2 (stereo partly drawn) [Ex. 8, Pyrrolidine, 1-[[(5-hydroxy-2-adamantyl)amino]-acetyl]-2-cyano-, (S)-] |  | 8.22 | 7.92 |
